Patent publication US20230092872A1, “Method for promoting wound healing” (Phagelux Canada Inc., priority 2021, published 2023)

Test: Toxicological evaluation of leachable chemicals of BACTELIDE (margin of safety)
Conditions: worst-case exposure: daily exposure, 100% bioavailability; leachables from BACTELIDE spray
Experimental: ISO 10993-18:2020 and ISO/TS 21726:2019 leachable studies were performed for BACTELIDE. Solutions of BACTELIDE were collected for analysis via the spraying. The extracts were analyzed by gas chromatography-mass spectrometry (GC-MS) for volatile to semi-volatile compounds, by liquid chromatography-mass spectrometry (LC-MS) for semi-volatile to nonvolatile compounds, and by inductively coupled plasma mass spectrometry (ICP-MS) for elemental (metal and other) components. After analysis, results were reported based on the evaluation criteria listed in the results section below. […] 2-(N,N-Diethylamino)ethyldecyl maleate (CAS #184874-09-7) was the most abundant. Regarding LC-MS results, thirty-nine reportable compounds were identified in the test article extracts in positive ion mode. Glycerol dipentadecanoate (CAS #121957-69-5) was the most abundant. Thirty-six reportable compounds were identified in the test article extracts in negative ion mode. 3-[4-[[4-(2-Oxiranylmethoxy)phenyl]methyl]phenoxy]-1,2-propanediol didodecanoate (CAS #not given) was the most abundant. […]
The MOS values for all chemicals (or groups of similar chemicals) and elements identified across the analytical methods ranged from 3 to 1340000. A few chemicals had calculated “near-1” (i.e. ≥1 but <10) MOS values. […] Their margins of safety were calculated using the ICH M7 less than 1 year TTC of 0.33. […]

## OCC(O)COc1ccc(Cc2ccc(OCC3CO3)cc2)cc1 (stereo not shown) [3-[4-[[4-(2-Oxiranylmethoxy)phenyl]methyl]phenoxy]-1,2-propanediols]
  MOS value (margin of safety): 3
